In paper PMC5698726, “Allosteric Tuning of Caspase‐7: A Fragment‐Based Drug Discovery Approach” (Angewandte Chemie (International Ed. in English), 2017):

Experiments:
[1] = target: T1, caspase-7 (C7) (Homo sapiens, UniProt P55210); experiment: SPR OneStep injection, His-captured protein, […] fit; type: binding; settings: read-out: Dissociation constant
T1 construct: gene CASP7; mature (processed, active) caspase-7, dimer, 6xHis tag; expression details only in supplement
T1 sequence (P55210 24-198): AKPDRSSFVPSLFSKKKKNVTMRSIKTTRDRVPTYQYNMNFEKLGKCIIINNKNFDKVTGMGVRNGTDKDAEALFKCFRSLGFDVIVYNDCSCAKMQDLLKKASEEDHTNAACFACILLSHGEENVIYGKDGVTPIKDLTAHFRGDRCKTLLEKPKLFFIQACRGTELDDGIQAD
T1 sequence (P55210 207-303): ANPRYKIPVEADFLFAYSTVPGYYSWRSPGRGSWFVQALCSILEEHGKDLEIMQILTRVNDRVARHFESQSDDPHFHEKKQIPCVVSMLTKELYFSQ

[2] = target: T1, caspase-7 (C7); experiment: steady-state kinetics, Ac-DEVD-AFC cleavage; type: biochemical
[3] = target: T1, caspase-7 (C7); experiment: fluorogenic Ac-DEVD-AFC cleavage assay; type: biochemical

Row | Kd [1] [mM] | Ki [2] [mM] | IC50 [3] [mM] | SMILES
1 | 8 ± 3 | 5.47 ± 0.398 | 3.98 ± 0.00105 | CC(=O)c1ccccc1Sc1ccccc1C(=O)O [compound 1, 1]
2 | 4.09 ± 0.3 | 4.32 ± 0.194 | 8.52 ± 0.0012 | O=C(O)C1c2ccccc2Oc2ccccc21 [compound 2, 2]
3 | – | 0.667 ± 0.0319 | 0.637 ± 0.00104 | O=C(O)Cc1ccccc1Sc1ccccc1 [compound 6, 6]
